Data on 4 compounds can be found in patent US20060172987A1 (DSM IP Assets B.V., priority 2003, published 2006).

Holding throughout (format): physicochemical
The nature of data set [1]: Free water content by dynamic vapour sorption (adsorption isotherm, VTI-SGA 100). The conditions noted are these: equilibrium relative humidity of 30%, 25° C. The source says:
The free water content of a sample can be determined by dynamic vapour sorption. The underlying principle is that the weight of the sample is monitored while it is contacted with air having a preconditioned relative humidity. As a result of water take-up or water release the sample weight will change until the equilibrium situation has been established. The sample weight in this equilibrium situation is the sample weight corresponding to the equilibrium relative humidity, the latter being the relative humidity of the preconditioned air with which the sample is contacted. By repeating this procedure for different values of the equilibrium relative humidity, the sample weight can be determined as a function of the equilibrium relative humidity. […]
As used herein, the free water content measured at an equilibrium relative humidity of 30% and at a temperature of 25° C. is in particular defined as ((w30-w10)/w10)*100%, wherein […]
The free water content, including the values for w30 and w10 are preferably determined using dynamic vapour sorption, for instance using a VTI-SGA 100 vapour sorption analyser. […]
Adsorption isotherms were determined using dynamic vapour sorption, using a VTI-SGA 100 vapour sorption analyser. […]

A short description of data set [2]: Particle size distribution by laser diffraction (Malvern particle sizer 2600 C). The source says:
The d10 and d50 are known ways for indicating a particle size distribution, d50 referring to the value for the particle size such that 50 vol. % of the crystals has a particle size smaller than said value. The d50 is also referred to as average volume-based grain size. Likewise, d10 refers to the value for the particle size such that 10 vol. % of the crystals has a particle size smaller than said value. A preferred way for determining d10 and d50 is laser diffraction, preferably using Malvern equipment. A suitable apparatus for […] determining d10 and d50 is a Malvern particle sizer 2600 C obtainable from Malvern Instruments Ltd., Malvern UK, using an objective of f=300 mm and a beam length of is 14.30 mm. A polydisperse analysis model may advantageously be used.
The particle size distribution (including d10 and d50) was determined using a Malvern particle sizer 2600 C with objective f=300 mm, malvern sample measurement unit PS1 and a Malvern dry powder feeder PS 64. The beam length was 14.30 mm. A polydisperse analysis model was used.

Data set [3] is described as follows: Bulk density (USP 24, method I). The conditions noted are these: for Bulk dens.: crystalline powder as obtained, trihydrate. The source says:
The crystalline powder according according to this aspect of the invention has improved flow properties, without having to be subjected to processes such as granulation, compactation, agglomeration or aggregation, has good colour properties, good stability and a high dissolution rate. If it would still be desired to subject the crystalline powder to processes such as granulation, compactation, agglomeration or aggregation, and the like, applying these processes is facilitated due to the improved flow properties of the crystalline powder according to this aspect of the invention. Moreover, an increased quantity of crystalline powder can be fed into a capsule of a given size. The bulk density is preferably determined according to USP 24, method I, (page 1913). Preferably, of the crystalline powder has a bulk density higher than 0.46 g/ml, preferably higher than 0.5 g/ml, more preferably higher than 0.55 g/ml. This further improves the flow properties. Moreover, an increased bulk density is advantageous as crystalline powder may be fed into a certain volume, for instance a capsule. There is no specific upper limit for the bulk density. The bulk density may be less than 0.8 g/ml, for instance less than 0.7 g/ml.

The nature of data set [4]: Tapped density (USP 24, method II). The conditions noted are these: for Tap. dens.: crystalline powder as obtained, trihydrate. The text has this:
In a preferred embodiment, the crystalline powder according to the invention has a tapped density higher than 0.6 g/ml, preferably higher than 0.7, more preferably higher than 0.8 g/ml. An increased tapped density improves the flow properties. Moreover, an increased tapped density is advantageous as more products may be fed into a certain volume, for instance a capsule. There is no specific upper limit for the tapped density. The tapped density may be less than 1.2 g/ml, for instance less than 1.1 g/ml, for instance less than 1.0 g/ml. The tapped density is preferably determined according to USP 24, method II, (page 1914).

[5] abbreviates: crystalline powder as obtained, trihydrate.
[6] abbreviates: overheads fraction after air jet sieving, 75 μm screen, 10 minutes.

Consider `CC1(C)S[C@@H]2[C@H](NC(=O)[C@H](N)c3ccc(O)cc3)C(=O)N2[C@H]1C(=O)O` [Comp. A, amoxicillin, reference compound], for which, in data set [1], the “Free water content at ERH = 30%” value is recorded as 0.11 wt. %. In addition, in data set [2] (crystalline powder as obtained), the d10 is 2.7 μm and the d50 was determined as 8.3 μm.

`CC1(C)S[C@@H]2[C@H](NC(=O)[C@H](N)c3ccc(O)cc3)C(=O)N2[C@H]1C(=O)O.O.O.O` [Example V, amoxicillin trihydrate]: in data set [2] (setting [5]), the d10 amounted to 17.4 μm and the d50 was 66.3 μm. This compound also registered a Bulk dens. in data set [3] of 0.25 g/mL. The compound further returned a Tap. dens. in data set [4] of 0.47 g/mL.

In data set [2] (setting [5]), `CC1(C)S[C@@H]2[C@H](NC(=O)[C@H](N)c3ccc(O)cc3)C(=O)N2[C@H]1C(=O)O.O.O.O` [Example VI, amoxicillin trihydrate] came in with a d10 of 19 μm and a d50 of 61 μm. In data set [2] (setting [6]), the d10 was 36 μm and the d50 came to 86 μm. Besides, in data set [3], the Bulk dens. stood at 0.58 g/mL. In data set [3] (setting [6]), this compound had a bulk density of 0.59 g/mL. The Tap. dens. in data set [4] amounted to 0.79 g/mL. The same compound showed a tapped density in data set [4] (setting [6]) of 0.74 g/mL.

As for `CC1(C)S[C@@H]2[C@H](NC(=O)[C@H](N)c3ccc(O)cc3)C(=O)N2[C@H]1C(=O)O.O.O.O` [Ex. I, amoxicillin trihydrate], in data set [1], the “Free water content at ERH = 30%” value amounted to 0.05 wt. %. For the same compound, in data set [2] (setting [5]), the d10 is reported as 11.4 μm and the d50 is given as 43.1 μm. The compound also came in with a Bulk dens. in data set [3] of 0.51 g/mL. In addition, in data set [4], the Tap. dens. stood at 0.73 g/mL.
